# Assay results from US20150337013A1, “NOVEL ANTIBACTERIAL AGENTS FOR THE TREATMENT OF GRAM POSITIVE INFECTIONS” (priority 2008, published 2015).
# “And” between values parts separate entries of the source, which are not always exact repeats. Equal entries are not always repeated.
# How the values were obtained:
# [1] = test system: C. difficile spores (ATCC #43596); test: Hamster C. difficile infection (CDAD) protection model; format: in vivo, Syrian golden hamsters; details: oral 0.5 mg/kg once daily for 5 days (MET 70 mg/kg three times daily for 5 days)
# Experimental: Syrian golden hamsters were pretreated with 10 mg/kg clindamycin subcutaneously 24 hours before bacterial challenge. An inoculum of 20 C. difficile spores (ATCC #43596) in sterile saline was administered orally. Treatment was initiated 4 hours post-inoculation with dH2O, metronidazole (MET), vancomycin (VAN), or a compound of the present invention. Oral dosing regimens for VAN and compounds of Formula I were 0.5 mg/kg once daily for 5 days. MET was administered at 70 mg/kg three times daily for 5 days. CDAD was confirmed as the cause of death by observations at necropsy, including wet tail and/or macroscopic cecal alterations. The % protection provided by each therapy tested was calculated at 1 and 21 days post-dosing.
# gram positive bacteria = test: Antimicrobial activity against a panel of organisms, summary statements; format: cell-based; details: statement in words
# Experimental: (§1) Compounds according to Formula I were tested for antimicrobial activity against a panel of organisms. Aerobic organisms, Staphylococcus aureus, Enterococcus faecalis and E. faecium, were tested by broth microdilution according to Clinical and Laboratory Standards Institute (CLSI) document M7-A7 (Clinical and Laboratory Standards Institute. Methods for Dilution Antimicrobial Susceptibility Tests for Bacteria that Grow Aerobically; Approved Standard—Seventh Edition. CLSI document M7-A7 [ISBN 1-56238-587-9]. Clinical and Laboratory Standards Institute, 940 West Valley Road, Suite 1400, Wayne, Pa. 19087-1898 USA, 2006) with modifications as described below. Mueller Hinton Broth (MHBc) was supplemented with 50 mg/L calcium (equivalent to human physiological levels of calcium) and assay plates were incubated 18-20 hours at 37° C. with aeration (200 rpm).
# (§2) In all cases the final concentration of dimethyl sulfoxide incubated with cells is less than or equal to 1%. For minimum inhibitory concentration (MIC) calculations, 2-fold dilutions of compounds were added to wells of a microtiter plate containing 5×10^5 bacteria in a final volume of 100 μL of media. Following incubation, (18-20 hours at 37° C. with aeration at 200 rpm) growth was confirmed visually by placing plates over a viewing apparatus (stand with a mirror underneath) and then the optical density (OD600) was measured using a SpectraMax 340PC^384 plate reader. Growth was defined as turbidity that could be detected with the naked eye or achieving minimum OD600of 0.1. MIC values (in μg/mL) were defined as the lowest concentration producing no visible turbidity.
# [2] = test system: Staphylococcus aureus SAU.278, Daptomycin resistant mutant (D10); format: cell-based; details: MHBc with 50 mg/L calcium, 18-20 hours at 37° C.
# Outline: (§3)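 Susceptibility is measured by modified CLSI broth microdilution using calcium-supplemented Mueller Hinton broth (50 mg/L) and an inoculum of 5×10^5 bacteria. MIC values in μg/mL mark the lowest concentration that leaves no visible turbidity.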
# [3] = test system: Enterococcus faecium EFM.384, Daptomycin resistant mutant (14-A); format: cell-based; details: MHBc with 50 mg/L calcium, 18-20 hours at 37° C.
# Outline: as §3
# [4] = test system: Enterococcus faecalis EFS.312, Daptomycin resistant mutant (EFA); format: cell-based; details: MHBc with 50 mg/L calcium, 18-20 hours at 37° C.
# Outline: as §3
# [5] = test system: Staphylococcus aureus SAU.42 (ATCC 29213); format: cell-based; details: ATCC 29213
# Outline: as §3
# [6] = test system: daptomycin resistant Staph. aureus (DRSA), daptomycin resistant E. faecium (DREfm) and daptomycin resistance E. faecalis (DREfs); test: Activity against daptomycin resistant bacteria, summary statement; format: cell-based; details: statement in words
# Experimental: as §1, §2
# [7] = test system: Enterococcus faecium EFM.14 (ATCC 6569); format: cell-based; details: ATCC 6569
# Outline: as §3
Compound,Mean % Protection 1 Day Post Dosing [1] [%],Mean % Protection 21 Days Post Dosing [1] [%],as active or more active than daptomycin (gram positive bacteria),Sa278 MIC [2],Efm384 MIC [3],Efs312 MIC [4],Sa42 MIC [5] [µg/mL],useful against daptomycin resistant strains of bacteria [6],more active against bacteria than daptomycin (gram positive bacteria),Efm14 MIC [7] [µg/mL],C. diff MIC90 (Clostridium difficile) [µg/mL]
CCCCCC1CCC(C(=O)N[C@@H](Cc2c[nH]c3ccccc23)C(=O)N[C@H](CC(N)=O)C(=O)N[C@@H](CC(=O)O)C(=O)N[C@@H]2C(=O)NCC(=O)N[C@@H](CCCN)C(=O)N[C@@H](CC(=O)O)C(=O)N[C@H](C)C(=O)N[C@@H](CC(=O)O)C(=O)NCC(=O)N[C@H](CO)C(=O)N[C@@H]([C@H](C)CC(=O)O)C(=O)N[C@@H](CC(=O)c3ccccc3N)C(=O)O[C@@H]2C)CC1 (stereo partly drawn) [Compound 16],100,85,as active or more active than daptomycin,8 µg/mL,32 µg/mL and 16 µg/mL,16 µg/mL and >32 µg/mL,0.5,,,,
"CCCCCOc1ccc(-c2ccc(C(=O)N[C@@H](Cc3c[nH]c4ccccc34)C(=O)N[C@H](CC(N)=O)C(=O)N[C@@H](CC(=O)O)C(=O)N[C@@H]3C(=O)NCC(=O)N[C@@H](CCCN)C(=O)N[C@@H](CC(=O)O)C(=O)N[C@H](C)C(=O)N[C@@H](CC(=O)O)C(=O)NCC(=O)N[C@H](CO)C(=O)N[C@@H]([C@H](C)CC(=O)O)C(=O)N[C@@H](CC(=O)c4ccccc4N)C(=O)O[C@@H]3C)cc2)cc1 [Compound 61, N-[4′-(pentyloxy)biphenyl-4-carbonyl]-L-tryptophyl-D-asparaginyl-L-α-aspartyl-L-threonylglycyl-L-ornithyl-L-α-aspartyl-D-alanyl-L-α-aspartylglycyl-D-seryl-(3R)-3-methyl-L-α-glutamyl-(αS)-α,2-diamino-γ-oxobenzenebutanoic acid (13→4)-lactone]",,,as active or more active than daptomycin,,2 µg/mL and 1 µg/mL,4 µg/mL,,useful against daptomycin resistant strains of bacteria,more effective than daptomycin,0.5,2
"C[C@H](CC(=O)O)[C@@H]1NC(=O)[C@@H](CO)NC(=O)CNC(=O)[C@H](CC(=O)O)NC(=O)[C@@H](C)NC(=O)[C@H](CC(=O)O)NC(=O)[C@H](CCCN)NC(=O)CNC(=O)[C@@H](NC(=O)[C@H](CC(=O)O)NC(=O)[C@@H](CC(N)=O)NC(=O)[C@H](Cc2c[nH]c3ccccc23)NC(=O)C2CCCCCCCCCCC2)[C@@H](C)OC(=O)[C@H](CC(=O)c2ccccc2N)NC1=O [Compound 28, N-cyclododecanecarbonyl-L-tryptophyl-D-asparaginyl-L-α-aspartyl-L-threonylglycyl-L-ornithyl-L-α-aspartyl-D-alanyl-L-α-aspartylglycyl-D-seryl-(3R)-3-methyl-L-α-glutamyl-(αS)-α,2-diamino-γ-oxobenzenebutanoic acid (13→4)-lactone]",100,100,as active or more active than daptomycin,4 µg/mL and 8 µg/mL,32 µg/mL,>32 µg/mL,,,,,4
